Data from US5215520A, “Method for delivering an active substance topically or percutaneously” (Centre Internationale de Recherches Dermatologiques …, priority 1991, dated 1993).

How the values were obtained:
[1] = Pharmacokinetic profile: blood and urine levels after single intravenous injection; assay type: in vivo, hairless female rats
Procedure: Prior to the in vivo experiments, a study was carried out to determine whether the levels of peptide in urine were significant. To this end, following a single intravenous injection of Thr-Lys-Pro, its levels in blood and urine were measured. This was carried out by an injection of 0.5 cm^3 of an aqueous solution containing 2 nmol/cm^3 of non-radiolabelled peptide and 5 μCi/cm^3 of radiolabelled peptide via the tail vein of five hairless female rats (198±12 g). The rats had been anaesthetised by an intraperitoneal injection of pentobarbital sodium (40 mg/kg). The rats were left in metabolic cages and blood samples were taken at 10, 15, 30 minutes and 1, 2, 3 and 24 hours following the peptide injection. Blood was removed from the retro-orbital sinus of the eye socket by capillary tube. The samples were weighed into a crucible (ashless paper) and allowed to dry overnight. The blood was then oxidized using a tri-carb oxidizer (model 306 sold by Packard Instrument Co. Inc.) and measured for radioactivity. Urine was collected from the cage after 24 hours and also measured for radioactivity.

[2] = rat, in vivo
Procedure: In these experiments, the levels of Thr-Lys-Pro peptide in urine following application of the peptide to the skin were measured.
Electrodes (105, 106) (Ag/AgC1) were tightly fitted to the stoppers (103, 104) and became enclosed within the chambers (101 and 102) when the chambers were closed by replacing the stoppers. The distance between the bottom of the electrode after the stopper has been replaced and the bottom of the chamber is 0.3 cm. The skin surface contact area was 3.80 cm^2 and the axes of the chambers were 42 mm apart. The electrodes were connected to a source of electric current (E). To enable the various experiments to be performed, chambers (101 and 102) were fixed to the skin (S) using a cyanoacrylate glue. […]
After 3 hours the electrodes were removed and the skin washed carefully with deionized water, then dried and stripped 5 times with adhesive tape (3M Co., St. Paul, Minn., U.S.A) and the strips discarded. […] The urine passed in the 24-hour period was collected and counted for radioactivity.
In the method of the invention, the skin was first subjected to 3 hours of electric current as in conventional iontophoresis, except that chamber 101 contained the gel of example 1 without peptide. […] The rats were then left as described previously in their metabolic cages for 24 hours and urine collected and measured for radioactivity. […]

Thr-Lys-Pro
quantity of peptide present in urine ([1]; 24 hours after the intravenous injection, radioactivity): 63.6±8 % of the injected dose
quantity of peptide in the blood ([1]; single intravenous injection, blood sampled 10 minutes to 24 hours): not detectable
systemic absorption of peptide (total quantity in urine) vs passive method without current [2]: greater systemic absorption of peptides than the passive method without application of current
